Assays:
[1] = test system: heart (cardiomyocyte apoptosis); assay: TUNEL staining of heart sections after DOX-liposome treatment; type: in vivo, mice; details: 1 mg DOX/kg + iRGD daily, 17 days
Procedure: (FIGS. 14A and 14B) Nude mice bearing orthotopic 22Rv1 human prostate tumors were intravenously injected with DOX-liposomes (3 mg DOX/kg) followed 5 min later by 100 nmol iRGD or PBS. Tumors and tissues were collected 3 hours later. In (FIG. 14A), the tumors were sectioned and stained with an anti-CD31 antibody. The doxorubicin is represented by the light specs that look like four halos in the left panel. Scale bars=200 μm, n=3. In (FIG. 14B), DOX in the tissues was quantified. […] The tumors were harvested and weighed after 17 days of treatment. The number of mice in each group was 5. One of 3 experiments that gave similar results is shown. (FIG. 14D) TUNEL staining was performed immunohistochemically on tissue sections of the tumor and heart samples from the treatment study, and quantified for positivity. Statistical analyses were performed with Student's r-test in (FIG. 14B), and ANOVA in (FIG. 14C) and (FIG. 14D); error bars, s.e.m.; n.s., not significant; single asterisk, p<0.05; double asterisk, p<0.01; triple asterisk, p<0.001. […]
Cryo-sections were immunohistochemically stained, scanned with a Scanscope CM-1 scanner, and positively stained areas were quantified with the ImageScope software (Aperio Technologies, Vista, Calif.; Sugahara et al., 2009). […]

[2] = test system: orthotopic 22Rv-1 human prostate cancer xenografts; details: mouse, in vivo
Procedure: The circulation time was 2 hrs. for the free peptides, 15 min. for the peptide-displaying phage, and 3 hrs. for the peptide-coupled micelles. […] Representative fields from multiple sections of each of these three tumors are shown. Scale bars=50 μm. […] The samples were subjected to image analysis with Scanscope CM-1 scanner for quantification of the FAM-positive areas. Statistical analysis was performed with Student's t-test. n=3; error bars, s.e.m.; triple asterisk, p<0.001.

[3] = test system: tumor; details: VEGF locally superfused on tumors; cited from earlier work

| Molecule | cardiomyocyte apoptosis (TUNEL), combo group [1] | homing to normal tissue [2] | enhancement of extravasation of albumin and nanoparticles within the tumor [3] |
| --- | --- | --- | --- |
| N=C(N)NCCC[C@@H]1NC(=O)[C@@H](N)CSSC[C@@H](C(=O)O)NC(=O)[C@H](CC(=O)O)NC(=O)[C@@H]2CCCN2C(=O)CNC(=O)[C@H](CCCCN)NC(=O)[C@H](CC(=O)O)NC(=O)CNC1=O [iRGD] | minimally present | does not detectably home to any normal tissue | – |
| VEGF | – | – | up to 4 fold |
